This note sets out measurements from PMC3046181, “Elimination of Endogenous Toxin, Creatinine from Blood Plasma Depends on Albumin Conformation: Site Specific Uremic Toxicity & Impaired Drug Binding” (PLoS ONE, 2011).

The target of this assay is T1, Human serum albumin (HSA) (Homo sapiens, UniProt P02768).
T1 construct: gene ALB; commercial native serum albumin (Sigma), essentially fatty acid free and globulin free; monomer
The assay is described as follows: isothermal titration calorimetry, single set of identical sites. The format is binding. Conditions: read-out: Ka[M^-1] / ITC ^a (converted). The source says:
isothermal titration calorimetry, single set of identical sites on Human serum albumin (HSA)

T1 sequence (P02768 25-609): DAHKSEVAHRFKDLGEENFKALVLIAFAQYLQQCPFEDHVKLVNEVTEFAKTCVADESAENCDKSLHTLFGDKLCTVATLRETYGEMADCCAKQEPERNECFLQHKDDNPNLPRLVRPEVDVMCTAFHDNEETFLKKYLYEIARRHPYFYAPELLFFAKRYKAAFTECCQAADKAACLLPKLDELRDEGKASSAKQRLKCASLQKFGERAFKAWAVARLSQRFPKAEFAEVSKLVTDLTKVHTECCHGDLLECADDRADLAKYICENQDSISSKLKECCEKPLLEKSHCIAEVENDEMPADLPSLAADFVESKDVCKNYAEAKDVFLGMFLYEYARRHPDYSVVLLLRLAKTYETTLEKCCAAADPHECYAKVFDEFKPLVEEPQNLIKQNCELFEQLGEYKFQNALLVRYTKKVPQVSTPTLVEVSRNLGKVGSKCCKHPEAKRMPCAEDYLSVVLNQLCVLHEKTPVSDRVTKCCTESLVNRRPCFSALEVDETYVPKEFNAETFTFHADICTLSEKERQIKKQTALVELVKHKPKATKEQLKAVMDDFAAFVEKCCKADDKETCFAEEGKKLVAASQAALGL

In the case of `CN1CC(=O)NC1=N` [creatinine, 2-Amino-1-methyl-5H-imidazol-4-one], the Kd is 11.2 µM.
